Where a name gives a salt, the structure may show the parent alone.
Assays:
Format in all cases: in vivo, adult patients
[1] = system: persistent allergic rhinitis; test: Clinical study in persistent allergic rhinitis: Total 5 Symptoms Score (T5SS)
Source text: (§1) For clinical symptoms, it was considered that a 1 point score reduction is clinically relevant. For health-related quality of life, it was considered that a 0.36 point score reduction is relevant. Secondary parameters of efficacy included different durations of treatment, different symptoms, different quality of life questionnaires, the incidence of co-morbidities suspected to be linked to allergic rhinitis and pharmaco-economic variables.
(§2) The target population of this example consisted of adults aged more than 18 years suffering from persistent allergic rhinitis [WHO Initiative on Allergic Rhinitis and its Impact on Asthma (ARIA), 2000, pages S147-S149]. To be enrolled, the subjects needed to have sufficient rhinitis symptoms during the selection period. Excluded were patients with ENT or eye infection during the 2-weeks preceding initial visit.
(§3) The study was a prospective, randomized, double blind, parallel group, and placebo-controlled study with levocetirizine dihydrochloride.
(§4) The severity of clinical symptoms was rated by the T5SS (sneezing, rhinorrhea, nasal pruritus, ocular pruritus and nasal congestion) evaluated each by a score from 0 to 3. The impact on health related quality of life was measured using the Rhinoconjunctivitis Quality of Life Questionnaire (RQLQ) (E. JUNIPER and G. H. GUYAIT, Development and testing of a new measure of health status for clinical trials in rhinoconjunctivitis, Clinical and Experimental Allergy 1991; 21:77-83; E. JUNIPER, Measuring Health Related Quality of Life in rhinitis, J. Allergy Clin. Immunol. 1997; 99:S742-9).
(§5) Study treatment lasted for 6 months. After the treatment period, patients entered a 1-week follow-up period.
(§6) The primary end-point for efficacy was a decrease of the T5SS over the first 4 weeks of at least 1 unit of score. The primary end-point for quality of life was a decrease of RQLQ after 4 weeks of at least 0.36 unit of the total score.
(§7) Secondary parameters of efficacy included the mean T5SS, the RQLQ and the SF-36 questionnaire at the different time points of the study, and the incidence and the duration of rescue medication over 6 months.
(§8) Oral tablets of levocetirizine dihydrochloride (5 mg) and matching placebo, similar in appearance, shape and taste were used. The recommended study dosage was 1 tablet per day.

[2] = system: persistent allergic rhinitis; test: Clinical study in persistent allergic rhinitis: Rhinoconjunctivitis Quality of Life Questionnaire (RQLQ)
Source text: as §1, §2, §3, §4, §5, §6, §7, §8
Sample size was based on 40% relative improvement over placebo in the RQLQ questionnaire, assuming an improvement from baseline for placebo of 0.9. For this questionnaire this corresponds to a difference of 0.36 vs. placebo.

[3] = system: persistent allergic rhinitis; test: Clinical study in persistent allergic rhinitis: individual rhinitis symptom scores (nasal congestion, sneezing, rhinorrhea, nasal pruritus, ocular pruritus); details: for Effect on nasal congestion / nasal obstruction (in words): long term treatment
Source text: as §1, §2, §3, §4, §5
Exploratory parameters of efficacy included the mean of each individual rhinitis score, each RQLQ domain and each scale of the SF-36 questionnaire at the different time points of the study, the Global Evaluation Scale after 4 weeks and 6 months, the incidence of co-morbidities suspected to be linked to allergic rhinitis and the pharmaco-economic direct and indirect costs over 6 months.
as §8

[4] = system: persistent allergic rhinitis; test: Clinical study in persistent allergic rhinitis: safety of long-term treatment; details: 5 mg once per day; 6 month treatment
Source text: The aim of the study relative to the clinical effect of levocetirizine dihydrochloride was to establish on the intention to treat (ITT population) whether a 6 month levocetirizine dihydrochloride treatment can improve the quality of life and clinical symptoms from adult patients suffering from persistent allergic rhinitis, when compared to placebo. For clinical symptoms, it was considered that a 1 point score reduction is clinically relevant. For health-related quality of life, it was considered that a 0.36 point score reduction is relevant. Secondary parameters of efficacy included different durations of treatment, different symptoms, different quality of life questionnaires, the incidence of co-morbidities suspected to be linked to allergic rhinitis and pharmaco-economic variables. The safety of this long-term treatment with levocetirizine dihydrochloride has also been evaluated.
At each of the eight visits, diary book entries (T5SS, RQLQ, SF-36, indirect cost pharmaco-economic parameters, concomitant medication, outpatient consultations and adverse events) were verified and transferred into the Clinical Record Form and direct cost pharmaco-economic parameters were recorded. Patients underwent a physical examination, including the measurement of vital signs. […]
Adverse events were recorded by the patients on diary cards and discussed with the investigator at each visit. […]

[5] = 5 mg once per day, 6 month treatment
[6] = 5 mg oral tablet once per day, over the first four weeks of treatment, ITT population
[7] = 5 mg oral tablet once per day, after first 4 weeks of treatment, ITT population
[8] = 5 mg, 3 months, evaluated over the 24 hours, ITT population
[9] = 5 mg, 4.5 months, evaluated over the 24 hours, ITT population
[10] = 5 mg, 6 months, evaluated over the 24 hours, ITT population
[11] = 5 mg, First 4 weeks, evaluated over the 24 hours, ITT population
[12] = 5 mg, Week 1, evaluated over the 24 hours, ITT population

O=C(O)COCCN1CCN([C@H](c2ccccc2)c2ccc(Cl)cc2)CC1 [Lctz, levocetirizine dihydrochloride]
Duration of effect on rhinitis [1, 5]: has an effect on rhinitis up to 6 months
Tachyphylaxis (need to adjust the dosing schedule) ([1]; 5 mg once per day, during 6 months): lack of tachyphylaxis
Mean T5SS, Adjusted mean (adjusted for baseline score and country) [1, 6]: 5.43
Mean T5SS, Mean (SD) [1, 6]: 5.53 (2.52)
Mean T5SS, Diff. vs. placebo (95% CI), placebo minus Lctz 5 mg ([1]; 5 mg oral tablet once per day, over the first four weeks of treatment, ITT population, dihydrochloride): 1.14
Duration of effect on quality of life [2, 5]: has an effect on quality of life up to 6 months
Change from baseline of the RQLQ Overall Score, Adjusted Mean (adjusted for baseline score and country) [2, 7]: −1.49
Change from baseline of the RQLQ Overall Score, Mean [2, 7]: −1.50
Change from baseline of the RQLQ Overall Score, Diff. vs. placebo (95% CI), placebo minus Lctz 5 mg ([2]; 5 mg oral tablet once per day, after first 4 weeks of treatment, ITT population, dihydrochloride): 0.48
Improvement of sneezing, rhinorrhea, nasal pruritus and ocular pruritus ([3]; 5 mg once per day, at all time points, vs. placebo): statistically significant improvement
Effect on nasal congestion / nasal obstruction (in words) ([3]; 5 mg once per day, listed as Levocetirizine, dihydrochloride): active on nasal obstruction after a long term treatment (equal or more than 3 months)
Effect on nasal congestion / nasal obstruction (in words) ([3]; 5 mg once per day, listed as levocetirizine dihydrochloride, dihydrochloride): has an effect on nasal congestion after 3 months
Nasal congestion symptoms, Adjusted Mean [3, 8]: 1.16
Nasal congestion symptoms, Mean (SD) [3, 8]: 1.22 (0.78)
Nasal congestion symptoms, Diff. vs. (95% CI), placebo minus Lctz ([3]; 5 mg, 3 months, evaluated over the 24 hours, ITT population, dihydrochloride): 0.15
Nasal congestion symptoms, Adjusted Mean [3, 9]: 1.11
Nasal congestion symptoms, Mean (SD) [3, 9]: 1.17 (0.77)
Nasal congestion symptoms, Adjusted Mean [3, 10]: 1.08
Nasal congestion symptoms, Mean (SD) [3, 10]: 1.13 (0.76)
Nasal congestion symptoms, Adjusted Mean [3, 11]: 1.40
Nasal congestion symptoms, Mean (SD) [3, 11]: 1.44 (0.78)
Nasal congestion symptoms, Adjusted Mean [3, 12]: 1.58
Nasal congestion symptoms, Mean (SD) [3, 12]: 1.61 (0.83)
Safety of long-term administration [4]: did not involve particular safety concerns

Reference: patent US20060247258A1, “Use of levocetirizine for the treatment of persistent allergic rhinitis” (UCB Farchim S.A., priority 2002, published 2006)
